{
  "source": "patent US20090012052A1",
  "about": "“METHOD FOR TREATING ER+ BREAST CANCER” (Ore Pharmaceuticals Inc., priority 2006, published 2009)",
  "key": {"T47D cells [1]": {"test_system": "T47D cells", "conditions": "cited from earlier work"}, "ER": {"test_system": "ER", "conditions": "T47D (ER+, PR+) cells; cited from earlier work"}, "PR": {"test_system": "PR", "conditions": "T47D (ER+, PR+) cells; cited from earlier work"}, "[2]": {"test_system": "T47D (human ER+ breast cancer cell line) xenografts", "experiment": "Growth of ER+ breast cancer cell line (T47D) xenografts in mice", "format": "in vivo", "conditions": "NODscid mice with estrogen pellet; p.o. once daily 3-5 weeks; candesartan cilexetil 10/30/100, irbesartan 30/100/300, tamoxifen 0.1/0.3/1.0 mg/kg", "procedure": "Female NODscid mice of age 5-6 weeks received a subcutaneous estrogen pellet implant (1.7 mg). Twenty four hours after estrogen pellet implantation, the mice received tumor implantation by subcutaneous injection of T47D cells to the flank (approximately 2.5×10^6 cells/mouse). The mice were ear-notched for identification and housed 4 animals per cage. The tumor implantation site was palpated up to 3 times weekly to monitor tumor growth. One hundred animals in which tumor implantation was successful (7-12 days after injection) were randomized to ten treatment groups, 10 animals per group:\nTumors were measured 3 times weekly using digital calipers. Body weight was measured twice weekly. Clinical observations were conducted weekly. At the conclusion of the study or when mice attained a maximum tumor burden of about 3.0 cm^3 or about 10% of body weight, the mice were sacrificed, tumors were harvested and a terminal blood sample was collected."}, "T47D cells [3]": {"test_system": "T47D cells", "experiment": "Cell proliferation assay (RT-CES impedance), ER+ cell line T47D", "format": "cell-based, human", "conditions": "for Effect on Ang II-induced growth / Effect on Ang II-induced cell proliferation: T47D", "procedure": "(§1) Unless otherwise indicated, cell proliferation assays described in Examples 2-5 were performed using a Real-Time Cell Electronic Sensing (RT-CES™ 96×) instrument from ACEA Bioscience (San Diego, Calif.). This instrument utilizes an electronic readout (impedance) to non-invasively quantify adherent cell proliferation and viability in real time.\n(§2) Cells were seeded in 96-well microtiter plates containing microelectronic sensor arrays (96E plates; ACEA). Cells were maintained in RPMI 1640 (Invitrogen, Carlsbad, Calif.) supplemented with 10% fetal bovine serum (FBS) (Hyclone, Logan, Utah) and were cultured at 37° C. in a humidified atmosphere containing 5% CO2. For proliferation assays, cells were seeded (20,000 cells/well), allowed to attach and grown overnight in standard growth medium. Cells were then serum-starved for 8 hours prior to the proliferation assay in presence or absence of test compound(s). The proliferation response was continuously monitored by measuring the impedance change in each well for the indicated number of hours. Data are expressed as cell index (CI) change relative to time in culture, reflecting measured changes in electrical impedance. Each value shown is an average of 6 wells. Where shown, statistical analysis was performed by calculation of standard deviation and P values were generated by a Student's two-tailed t-test.\n(§3) T47D (American Type Culture Collection, Manassas, Va. (ATCC) cat. HTB-133) is an ER+ cell line derived from human mammary gland ductal carcinoma. Other ER+ cell lines used in studies reported herein include ZR-75 and HCC70. HCC1143 (ATCC cat. CRL-2321) is an ER− cell line also derived from human mammary gland ductal carcinoma.\n(§4) Following the 8 hour starvation phase, either Ang II (Sigma-Aldrich), 500 nM, or vehicle control was added to the cell culture. […] Ang II also stimulated proliferation of ER+ cell lines HCC70, by approximately 30%, and ZR-75, by approximately 35%, relative to vehicle control (data not shown).\n(§5) A cell proliferation assay procedure was followed as described in Example 2. Following the 8 hour starvation phase, either Ang II (Sigma-Aldrich), 500 nM, with or without the AT1 receptor antagonist telmisartan, 1.25 μM or 5 μM, or vehicle control was added to the cell culture.\n(§6) A cell proliferation assay procedure was followed as described in Example 2. Following the 8 hour starvation phase, either Ang II (Sigma-Aldrich), 500 nM, with or without the AT1 receptor antagonist candesartan, 5 μM, or vehicle control was added to the cell culture.\n(§7) A cell proliferation assay procedure was followed as described in Example 2. Following the 8 hour starvation phase, either Ang II (Sigma-Aldrich), 500 nM, with or without the AT1 receptor antagonist irbesartan, 5 μM, or vehicle control was added to the cell culture.\nA cell proliferation assay was conducted by a procedure substantially as described in Example 2, using the ER+ human breast cancer cell line T47D. Following an eight-hour serum starvation phase, test substance was added to the cell culture to provide each of the following treatments: […]"}, "HCC1143 cells": {"test_system": "HCC1143 cells", "experiment": "Cell proliferation assay (RT-CES impedance), ER- cell line HCC1143", "format": "cell-based, human", "conditions": "for Effect on cell proliferation: HCC1143", "procedure": "as §1, §2, §3, §4, §5, §6, §7"}, "[4]": {"test_system": "breast cancer epithelial cell line MCF-7", "conditions": "cited from earlier work"}, "[5]": {"test_system": "cells cultured from invasive ductal carcinomas", "conditions": "cited from earlier work"}, "[6]": {"conditions": "administered for 5 years; women having risk factors; cited from earlier work"}, "HCC1395 cells": {"test_system": "HCC1395 cells", "experiment": "Cell proliferation assay (RT-CES impedance), cell line HCC1395", "format": "cell-based, human", "procedure": "as §1\nas §2, with “t-test. […]” for “t-test.”"}, "HCC70 cells": {"test_system": "HCC70 cells", "experiment": "Cell proliferation assay (RT-CES impedance), ER+ cell line HCC70", "format": "cell-based, human", "procedure": "as §1\nas §2, with “t-test. […]” for “t-test.”"}, "HCC1937 cells": {"test_system": "HCC1937 cells", "experiment": "Cell proliferation assay (RT-CES impedance), cell line HCC1937", "format": "cell-based, human", "procedure": "as §1\nas §2, with “t-test. […]” for “t-test.”"}, "T47D cell line": {"test_system": "T47D cell line", "conditions": "cited from earlier work"}, "HCC1954 cells": {"test_system": "HCC1954 cells", "experiment": "Cell proliferation assay (RT-CES impedance), cell line HCC1954", "format": "cell-based, human", "procedure": "as §1\nas §2, with “t-test. […]” for “t-test.”"}, "HCC38 cells": {"test_system": "HCC38 cells", "experiment": "Cell proliferation assay (RT-CES impedance), cell line HCC38", "format": "cell-based, human", "procedure": "as §1\nas §2, with “t-test. […]” for “t-test.”"}, "ZR-75 cells": {"test_system": "ZR-75 cells", "experiment": "Cell proliferation assay (RT-CES impedance), ER+ cell line ZR-75", "format": "cell-based, human", "procedure": "as §1\nas §2, with “t-test. […]” for “t-test.”"}, "[7]": {"conditions": "Ang II 500 nM with AT1 receptor antagonist 5 μM"}, "[8]": {"conditions": "Ang II 500 nM with AT1 receptor antagonist 5 μM, data not shown"}, "[9]": {"conditions": "Ang II 500 nM with telmisartan 1.25 μM or 5 μM"}},
  "note": "Entries after “also recorded” stand apart in the source; their conditions may differ.",
  "data": [
    {"molecule": "C[C@H](CS)C(=O)N1CCC[C@H]1C(=O)O", "note": "[Captopril]", "values": [
      {"measurement": "[3H]thymidine incorporation (an index of cell proliferation)", "setting": "T47D cells [1]", "value": "inhibited"},
      {"measurement": "ER protein concentration", "setting": "ER", "value": "reduced"},
      {"measurement": "PR protein concentration", "setting": "PR", "value": "increased"}
    ]},
    {"molecule": "CCOc1nc2cccc(C(=O)OC(C)OC(=O)OC3CCCCC3)c2n1Cc1ccc(-c2ccccc2-c2nnn[nH]2)cc1", "note": "(centres unmarked) [candesartan cilexetil]", "values": [
      {"measurement": "Growth in tumor volume", "setting": "[2]", "value": "reduced in a dose-dependent fashion"}
    ]},
    {"molecule": "CCOc1nc2cccc(C(=O)O)c2n1Cc1ccc(-c2ccccc2-c2nnn[nH]2)cc1", "note": "[candesartan, 2-ethoxy-1-[4-[2-(1H-tetrazol-5-yl)phenyl]benzyl]-7-benzimidazole-carboxylic acid]", "values": [
      {"measurement": "Effect on Ang II-induced growth", "setting": "T47D cells [3]; [7]", "value": "significantly inhibited"},
      {"measurement": "Effect on cell proliferation", "setting": "HCC1143 cells; [8]", "value": "No effects"}
    ]},
    {"molecule": "CCCCC1=NC2(CCCC2)C(=O)N1Cc1ccc(-c2ccccc2-c2nnn[nH]2)cc1", "note": "[irbesartan, 2-n-butyl-4-spirocyclopentane-1-[(2′-(tetrazol-5-yl)bipheny-4-yl)methyl]-2-imidazolin-5-one]", "values": [
      {"measurement": "Effect on Ang II-induced growth", "setting": "T47D cells [3]; [7]", "value": "significantly inhibited"},
      {"measurement": "Effect on Ang II-induced cell proliferation", "setting": "T47D cells [3]; irbesartan 5 μM + Ang II 500 nM", "value": "reversed the Ang II effect"},
      {"measurement": "Growth in tumor volume", "setting": "[2]", "value": "the lowest dose tested (30 mg/kg) appeared to give the greatest effect"},
      {"measurement": "Effect on cell proliferation", "setting": "HCC1143 cells; [8]", "value": "No effects"}
    ]},
    {"molecule": "NCCCC[C@H](N[C@@H](CCc1ccccc1)C(=O)O)C(=O)N1CCC[C@H]1C(=O)O", "note": "[lisinopril]", "values": [
      {"measurement": "[3H]thymidine incorporation (an index of cell proliferation)", "setting": "T47D cells [1]", "value": "No such effects"},
      {"measurement": "ER protein concentration", "setting": "ER", "value": "No such effects"},
      {"measurement": "PR protein concentration", "setting": "PR", "value": "No such effects"}
    ]},
    {"molecule": "CCCCc1nc(Cl)c(CO)n1Cc1ccc(-c2ccccc2-c2nnn[nH]2)cc1", "note": "[losartan, 2-n-butyl-4-chloro-5-hydroxymethyl-1-[[2′-(1H-tetrazol-5-yl)biphenyl-4-yl]methyl]imidazole]", "values": [
      {"measurement": "Effect on Ang II proliferative effect", "setting": "[4]", "value": "blocked"},
      {"measurement": "Effect on Ang II-stimulated proliferation", "setting": "[5]", "value": "blocked"}
    ]},
    {"molecule": "CC/C(=C(\\c1ccccc1)c1ccc(OCCN(C)C)cc1)c1ccccc1", "note": "[tamoxifen]", "values": [
      {"measurement": "Effect on Ang II-induced cell proliferation", "setting": "T47D cells [3]; tamoxifen 7.5 μM + Ang II 500 nM", "value": "reduced cell proliferation to a level lower than that of vehicle control"},
      {"measurement": "Growth in tumor volume", "setting": "[2]", "value": "reduced in a dose-dependent fashion"},
      {"measurement": "Reduction of incidence of invasive breast cancer", "setting": "[6]", "value": "~50", "unit": "%"}
    ]},
    {"molecule": "CCCc1nc2c(C)cc(-c3nc4ccccc4n3C)cc2n1Cc1ccc(-c2ccccc2C(=O)O)cc1", "note": "[telmisartan, 4′-[[4-methyl-6-(1-methyl-2-benzimidazolyl)-2-propyl-1-benzimidazol-yl]methyl]-2-biphenylcarboxylic acid]", "values": [
      {"measurement": "Effect on Ang II-induced growth", "setting": "T47D cells [3]; [9]", "value": "significantly inhibited"},
      {"measurement": "Effect on cell proliferation", "setting": "HCC1143 cells; [9]", "value": "No effects"}
    ]},
    {"molecule": "Ang II: peptide angiotensin II, a major regulator of blood pressure and cardiovascular homeostasis (Sigma-Aldrich) (DRVYIHPF; Angiotensin-2; UniProt P01019 25-32, looked up)", "values": [
      {"measurement": "Ang II proliferation response", "setting": "HCC1395 cells", "value": "negative"},
      {"measurement": "Stimulation of proliferation relative to vehicle control", "setting": "HCC70 cells; HCC70 (ER+), Ang II 500 nM, data not shown", "value": "approximately 30%"},
      {"measurement": "Ang II proliferation response", "setting": "HCC70 cells; cell line HCC70", "value": "positive"},
      {"measurement": "Proliferative effect of Ang II", "setting": "[4]", "value": "dose-dependent proliferative effect"},
      {"measurement": "Proliferation stimulated by Ang II", "setting": "[5]; ER and PR positive", "value": "stimulated in a dose-dependent manner"},
      {"measurement": "Ang II proliferation response", "setting": "HCC1937 cells", "value": "negative"},
      {"measurement": "Effect of Ang II on cell growth/proliferation", "setting": "T47D cells [3]; T47D (ER+), Ang II 500 nM vs vehicle control, after 8 h serum starvation", "value": "significantly stimulated growth; also recorded: substantial increase in cell proliferation"},
      {"measurement": "Ang II proliferation response", "setting": "T47D cells [3]; cell line T47D", "value": "positive"},
      {"measurement": "Stimulation of cell growth by Ang II", "setting": "T47D cell line", "value": "significant stimulation of cell growth"},
      {"measurement": "Effect of Ang II on cell growth/proliferation", "setting": "HCC1143 cells; HCC1143 (ER-), Ang II 500 nM vs vehicle control", "value": "No effects"},
      {"measurement": "Ang II proliferation response", "setting": "HCC1143 cells; cell line HCC1143", "value": "negative"},
      {"measurement": "Ang II proliferation response", "setting": "HCC1954 cells", "value": "negative"},
      {"measurement": "Ang II proliferation response", "setting": "HCC38 cells", "value": "negative"},
      {"measurement": "Stimulation of proliferation relative to vehicle control", "setting": "ZR-75 cells; ZR-75 (ER+), Ang II 500 nM, data not shown", "value": "approximately 35%"},
      {"measurement": "Ang II proliferation response", "setting": "ZR-75 cells; cell line ZR-75", "value": "positive"}
    ]}
  ]
}
